According to PubChem BioAssay AID1963845 (Molecular Pharmacology Branch, DTP, NCI, 2024):

Test system: 429239-143-T-J1-PDC complex spheroid viability
Assay: Anticancer human tumor 429239-143-T-J1-PDC patient-derived small cell lung carcinoma cell line growth inhibition [POLQ]
Details: for IC50: curve of first compound; for viability, T/C: stronger effect = lower value
Outline: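 Patient-derived tumour cells were co-cultured with HUVEC and mesenchymal stem cells as multicellular spheroids at 37 °C. They were treated with POLQ inhibitors (novobiocin, ART-558, RP6685) alone or combined with other agents. Top concentrations were at or near clinical Cmax (otherwise 10 microM; SN-38 at 1 microM), decreasing in half-log steps.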

[1] = second compound 0.0316 µM, first compound 0.0316 µM
[2] = second compound 0.0316 µM, first compound 0.1 µM
[3] = second compound 0.0316 µM, first compound 0.316 µM
[4] = second compound 0.0316 µM, first compound 1 µM
[5] = second compound 0.0316 µM, first compound 3.16 µM
[6] = second compound 0.0316 µM, first compound 10 µM
[7] = second compound 0.1 µM, first compound 0.0316 µM
[8] = second compound 0.1 µM, first compound 0.1 µM
[9] = second compound 0.1 µM, first compound 0.316 µM
[10] = second compound 0.1 µM, first compound 1 µM
[11] = second compound 0.1 µM, first compound 3.16 µM
[12] = second compound 0.1 µM, first compound 10 µM
[13] = second compound 0.316 µM, first compound 0.0316 µM
[14] = second compound 0.316 µM, first compound 0.1 µM
[15] = second compound 0.316 µM, first compound 0.316 µM
[16] = second compound 0.316 µM, first compound 1 µM
[17] = second compound 0.316 µM, first compound 3.16 µM
[18] = second compound 0.316 µM, first compound 10 µM
[19] = second compound 1 µM, first compound 0.0316 µM
[20] = second compound 1 µM, first compound 0.1 µM
[21] = second compound 1 µM, first compound 0.316 µM
[22] = second compound 1 µM, first compound 1 µM
[23] = second compound 1 µM, first compound 3.16 µM
[24] = second compound 1 µM, first compound 10 µM
[25] = second compound 3.16 µM, first compound 0.0316 µM
[26] = second compound 3.16 µM, first compound 0.1 µM
[27] = second compound 3.16 µM, first compound 0.316 µM
[28] = second compound 3.16 µM, first compound 1 µM
[29] = second compound 3.16 µM, first compound 3.16 µM
[30] = second compound 3.16 µM, first compound 10 µM
[31] = second compound 10 µM, first compound 0.0316 µM
[32] = second compound 10 µM, first compound 0.1 µM
[33] = second compound 10 µM, first compound 0.316 µM
[34] = second compound 10 µM, first compound 1 µM
[35] = second compound 10 µM, first compound 3.16 µM
[36] = second compound 10 µM, first compound 10 µM
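Further: luminescence signal used as surrogate measure of viable cells; spheroids exposed to compounds for seven days before readout.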
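Wherever viability, T/C is given: 100% = DMSO vehicle control viability as luminescence relative to vehicle.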

With O=C(Nc1ccc(O)c(NS(=O)(=O)c2ccc(F)cc2)c1)c1ccc(-c2ccccc2)cc1 + Cc1cccc(N(C)C(=O)C2C(O)CCN2c2nc(C)cc(C(F)(F)F)c2C#N)c1 the IC50 (second compound 0.0316 µM) was greater than 10 µM, the IC50 (second compound 0.1 µM) was greater than 10 µM and the IC50 (second compound 0.316 µM) was greater than 10 µM. It also gave an IC50 (second compound 1 µM) greater than 10 µM, an IC50 (second compound 3.16 µM) greater than 10 µM and an IC50 (second compound 10 µM) greater than 10 µM. It also gave a viability, T/C [1] of 93.8%, a viability, T/C [2] of 104% and a viability, T/C [3] of 91.9%. For the same compound, the viability, T/C [4] was 121%, the viability, T/C [5] was 100% and the viability, T/C [6] was 105%. The viability, T/C [7] was 100%, the viability, T/C [8] was 112% and the viability, T/C [9] was 111%. The viability, T/C [10] was 99.8%, the viability, T/C [11] was 107% and the viability, T/C [12] was 102%. For the same compound, the viability, T/C [13] was 100%, the viability, T/C [14] was 110% and the viability, T/C [15] was 102%. The viability, T/C [16] was 106%, the viability, T/C [17] was 118% and the viability, T/C [18] was 107%. The viability, T/C [19] was 103%, the viability, T/C [20] was 99.5% and the viability, T/C [21] was 94.1%. It also gave a viability, T/C [22] of 105%, a viability, T/C [23] of 112% and a viability, T/C [24] of 97%. For the same compound, the viability, T/C [25] was 106%, the viability, T/C [26] was 106% and the viability, T/C [27] was 108%. It also gave a viability, T/C [28] of 103%, a viability, T/C [29] of 105% and a viability, T/C [30] of 107%. The viability, T/C [31] was 111%, the viability, T/C [32] was 98.7% and the viability, T/C [33] was 107%. The viability, T/C [34] was 105%, the viability, T/C [35] was 109% and the viability, T/C [36] was 104%.

For O=c1[nH]cc(F)c(=O)[nH]1 + Nc1ccc(C#CCN(C(=O)Cc2ncc(C(F)(F)F)cc2C(F)(F)F)c2ccc(F)cc2)nn1, the IC50 (second compound 0.0316 µM) was 3.24 µM, the IC50 (second compound 0.1 µM) was 3.29 µM and the IC50 (second compound 0.316 µM) was 4.05 µM. It also gave an IC50 (second compound 1 µM) of 4.13 µM, an IC50 (second compound 3.16 µM) of 2.53 µM and an IC50 (second compound 10 µM) of 3.17 µM. For the same compound, the viability, T/C [1] was 98.3%, the viability, T/C [2] was 105% and the viability, T/C [3] was 96.6%. For the same compound, the viability, T/C [4] was 80.8%, the viability, T/C [5] was 50.7% and the viability, T/C [6] was 31.6%. The viability, T/C [7] was 107%, the viability, T/C [8] was 105% and the viability, T/C [9] was 104%. It also gave a viability, T/C [10] of 81%, a viability, T/C [11] of 51.5% and a viability, T/C [12] of 35.2%. It also gave a viability, T/C [13] of 100%, a viability, T/C [14] of 110% and a viability, T/C [15] of 104%. The viability, T/C [16] was 82.8%, the viability, T/C [17] was 56.7% and the viability, T/C [18] was 30.7%. For the same compound, the viability, T/C [19] was 115%, the viability, T/C [20] was 99.7% and the viability, T/C [21] was 105%. The viability, T/C [22] was 77.9%, the viability, T/C [23] was 56.3% and the viability, T/C [24] was 31.5%. It also gave a viability, T/C [25] of 98.1%, a viability, T/C [26] of 105% and a viability, T/C [27] of 102%. The viability, T/C [28] was 80.2%, the viability, T/C [29] was 43.3% and the viability, T/C [30] was 32.1%. It also gave a viability, T/C [31] of 104%, a viability, T/C [32] of 97.6% and a viability, T/C [33] of 106%. The viability, T/C [34] was 83.1%, the viability, T/C [35] was 51.1% and the viability, T/C [36] was 34.1%.

For C=CCn1c(=O)c2cnc(Nc3ccc(N4CCN(C)CC4)cc3)nc2n1-c1cccc(C(C)(C)O)n1 + Nc1ccc(C#CCN(C(=O)Cc2ncc(C(F)(F)F)cc2C(F)(F)F)c2ccc(F)cc2)nn1, the IC50 (second compound 0.0316 µM) was 0.584 µM, the IC50 (second compound 0.1 µM) was 0.624 µM and the IC50 (second compound 0.316 µM) was 0.599 µM. The IC50 (second compound 1 µM) was 0.578 µM, the IC50 (second compound 3.16 µM) was 0.576 µM and the IC50 (second compound 10 µM) was 0.548 µM. The viability, T/C (second compound 0.0316 µM, first compound 0.00316 µM) was 95.7%, the viability, T/C (second compound 0.0316 µM, first compound 0.01 µM) was 97.4% and the viability, T/C [1] was 106%. It also gave a viability, T/C [2] of 101%, a viability, T/C [3] of 88.1% and a viability, T/C [4] of 16.3%. It also gave a viability, T/C (second compound 0.1 µM, first compound 0.00316 µM) of 99.1%, a viability, T/C (second compound 0.1 µM, first compound 0.01 µM) of 103% and a viability, T/C [7] of 96.6%. It also gave a viability, T/C [8] of 103%, a viability, T/C [9] of 95% and a viability, T/C [10] of 18.7%. The viability, T/C (second compound 0.316 µM, first compound 0.00316 µM) was 106%, the viability, T/C (second compound 0.316 µM, first compound 0.01 µM) was 110% and the viability, T/C [13] was 108%. It also gave a viability, T/C [14] of 101%, a viability, T/C [15] of 94% and a viability, T/C [16] of 15.2%. The viability, T/C (second compound 1 µM, first compound 0.00316 µM) was 111%, the viability, T/C (second compound 1 µM, first compound 0.01 µM) was 109% and the viability, T/C [19] was 97.8%. The viability, T/C [20] was 105%, the viability, T/C [21] was 89.3% and the viability, T/C [22] was 14%. The viability, T/C (second compound 3.16 µM, first compound 0.00316 µM) was 109%, the viability, T/C (second compound 3.16 µM, first compound 0.01 µM) was 101% and the viability, T/C [25] was 100%. For the same compound, the viability, T/C [26] was 103%, the viability, T/C [27] was 90.3% and the viability, T/C [28] was 12.9%. It also gave a viability, T/C (second compound 10 µM, first compound 0.00316 µM) of 106%, a viability, T/C (second compound 10 µM, first compound 0.01 µM) of 99.7% and a viability, T/C [31] of 122%. For the same compound, the viability, T/C [32] was 101%, the viability, T/C [33] was 84% and the viability, T/C [34] was 13.3%.
